Data on 5 compounds can be found in US9353084B2, “2-amino 3,5,5-trifluoro-3,4,5,6-tetrahydropyridines as BACE1 inhibitors for treatment of Alzheimer's disease” (H. Lundbeck A/S, priority 2014, dated 2016).

One series has as its target human BACE1 (Homo sapiens (Human), UniProt P56817). Kind of series: BACE1 binding assay (SPA-based, radioligand displacement). The note with it: pH 4.5, Ki calculated from IC50. On the procedure: The binding assay was performed as SPA-based assay using a biotinylated form of human BACE1 recombinantly expressed and subsequently purified from Freestyle HEK293 cells. The binding assay was run in a 50 mM sodium acetate buffer, pH 4.5 containing 50 mM NaCl and 0.03% Tween-20 in white clear bottom 384 plates (Corning #3653). 10 nM (final concentration) radioligand ([^3H]—N-((1S,2R)-1-benzyl-3-cyclopropylamino-2-hydroxy-propyl)-5-(methanesulfonyl-methyl-amino)-N—((R)-1-phenyl-ethyl)-isophthalamide) (TRQ11569 purchased from GE Healthcare) was mixed with test compound at a given concentration, 6 nM (final concentration) human BACE1 and 25 μg Streptavidin coated PVT core SPA beads (RPNQ0007, GE Healthcare Life Sciences) in a total volume of 40 μl. Several concentrations of each test compound were tested in the assay for IC50 determination. The plates were incubated for one hour at room temperature and counted in a Wallac Trilux counter. Total and non-specific binding were determined using buffer and 1 μM (final concentration) of the high affinity BACE1 reference inhibitor (S)-6-[3-chloro-5-(5-prop-1-ynyl-pyridin-3-yl)-thiophen-2-yl]-2-imino-3,6-dimethyl-tetrahydro-pyrimidin-4-one, respectively. For each test compound, a IC50 value (the concentration mediating 50% inhibition of the specific binding of the radioligand) was determined from concentration-response curve and used to calculate the Ki from the equation Ki=IC50/(1+L/Kd), where L and Kd are the final concentration of the radioligand used in the assay and the dissociation constant of the radioligand, respectively. The Kd of the radioligand was determined from saturation binding experiments.

The subject of a further series is Aβ40. Briefly: Assessment of Aβ40 levels in rat brain and plasma following BACE1 inhibition (ELISA). It is filed as in vivo. The settings on record: 3 hours post dose, vs vehicle. The method, then: (§1) Young adult Male Sprague Dawley rats of approximately 250 g weight were purchased from Charles River and received 0-30 mg/kg of vehicle (10% HP betaCD+1M MeSO4, pH 2.5) or test compounds (dissolved in vehicle) only by oral gavage (p.o). The compounds are dosed at a volume of 5 ml/kg. Cohorts of 5-10 animals were established for each treatment condition.
(§2) At T=180 minutes after initial dosing the animals were stunned and decapitated with a guillotine. Trunk-blood was sampled in EDTA coated tubes after decapitation of the animal. The blood was centrifuged at 2200 G at 4° C. for 15 minutes and the plasma was collected and frozen at −80° C. The blood was aliquoted for Aβ ELISA and DMPK analysis Immediately following sacrifice, the brain was extracted and split into 2 halves. The right hemibrains were snap frozen on dry ice and stored at −80° C. The left half was dissected; with the front forebrain taken for Aβ ELISA and the remainder used for DMPK analysis. These samples were also snap frozen on dry ice and stored at −80° C. until use for analysis.
The cortex samples were thawed slightly on wet ice before they were homogenized with a small volume dispersing instrument (T10 basic ULTRA-TURRAX®) which was set at speed 5 for approximately 5-7 sec. The tissue was processed in a 10 times volume of the weight, for example 100 mg of tissue was homogenized in 1000 μL of Homogenization buffer. Homogenization buffer: 50 ml Milli Q water+[…]+0.2% Diethylamin (DEA)+1 tablet of Complete Protease inhibitor cocktail+1 nM 4-(2-aminoethyl)benzenesulfonyl fluoride hydrochloride irreversible serine protease inhibitor (AEBSF).
After homogenization 450 μL aliquots of the samples are collected into a 1.5 ml Eppendorf tube and placed on wet ice, 0.5% NP-40 (50 ul) was added to all samples and then they were incubated on ice for 30 min. After which all samples were sonicated using an Ultrasonic homogenizer with 20 kHz homogeneous sound (SONOPLUS HD2070, Bandelin Electronic) 10 pulse set at 12-13% power to extract all the Aβ species. The samples were then centrifuged (Ole Dich 157 MPRF Micro centrifuge) at 20000 G for 20 minutes at 4° C. After centrifugation 285 μL of the supernatant was pipetted into 600 μL microtubes tubes and neutralized with 15 μL of 1M Tris-HCL buffer.
WAKO 294-62501 Human/Rat Abeta amyloid (40) kit was used for all ELISA analyses. 30 μL plasma samples or 30 μL of the cortex supernatants generated as described above were placed in 600 μL microtubes tubes on wet ice. To this 30 μL of 8M Urea (AppliChem A1049, 9025) are added to generate a 2-fold dilution. Both plasma and cortex supernatants are incubated on ice for 30 min. Standard rows were prepared from the standard peptide stock provided in the kit and standard diluent containing 1.6M Urea (200 μL 8M Urea+800 μL of standard diluent) and 0.8M Urea (400 μL 8M Urea+3600 μL Standard diluent). A serial 2-fold dilution of Aβ40 from 100 pmol/ml to 0 pmol/L was prepared for the assay.
After incubation with urea, all samples were further diluted by addition of 5 times standard diluent from the Kit. This was done by adding 240 μL Standard Diluent to 60 μL sample/urea mixture, which was then mixed well. 100 μL of each diluted sample was pipetted into designated wells of the ELISA plate in duplicates. The plate was then covered and incubated overnight at 4° C. The following day, the ELISA kit was brought to room temperature before use. The incubated plate was washed 5 times with the 20× washing solution diluted in Milli Q water. 100 μL HRP-conjugate was applied to each well, and the plate was covered and incubates at 4° C. for 1 hr. The wash was repeated again for 5 times. 100 μL 3,3′,5,5′-Tetramethylbenzidine (TMB) solution was applied to each well and the plate was covered and incubated in the dark at room temperature for 30 minutes. […]
(An ELISA detects its analyte on a solid surface through an enzyme-linked reagent.)

Series [1] can be described thus: Brain and plasma exposure in rats after oral dosing (DMPK analysis). It is filed as in vivo. The note with it: male, Sprague Dawley, 3 hours post dose, rat, read-out: Brain/Plasma ratio. The method, then: as §1, §2
Compounds 1, 5, 17, 18, and 24 were administered at doses of 10 or 30 mg/kg p.o. and brain and plasma samples were collected at 3 hours post dose and the following exposures and reductions in Aβ40 levels were measured as described above.

Where two headings read alike, the source gives them in different places.

Sequence of human BACE1 (P56817 46-501): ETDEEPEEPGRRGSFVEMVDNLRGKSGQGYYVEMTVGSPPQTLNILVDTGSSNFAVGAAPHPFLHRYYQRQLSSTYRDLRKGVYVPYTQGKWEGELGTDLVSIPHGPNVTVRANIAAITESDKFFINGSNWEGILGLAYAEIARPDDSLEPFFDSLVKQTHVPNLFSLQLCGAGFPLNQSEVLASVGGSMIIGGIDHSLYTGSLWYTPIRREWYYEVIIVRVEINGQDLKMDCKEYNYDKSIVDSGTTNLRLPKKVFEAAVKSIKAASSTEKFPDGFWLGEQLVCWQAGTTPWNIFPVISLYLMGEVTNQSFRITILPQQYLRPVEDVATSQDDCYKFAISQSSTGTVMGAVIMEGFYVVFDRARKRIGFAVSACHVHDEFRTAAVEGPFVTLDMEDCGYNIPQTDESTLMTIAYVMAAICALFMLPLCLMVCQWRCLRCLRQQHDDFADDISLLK

`C[C@]1(F)CC(F)(F)[C@@](C)(c2cc(NC(=O)c3ccc(F)cn3)ccc2F)N=C1N` [Compound 1, N-(3-((2R,5S)-6-amino-3,3,5-trifluoro-2,5-dimethyl-2,3,4,5-tetrahydropyridin-2-yl)-4-fluorophenyl)-5-fluoropicolinamide]: on human BACE1, the Ki was 83 nM. In the series on Aβ40 (30 mg/kg p.o.), the “Aβ40 reduction, Brain Rat” value turned out to be 56% and the “Aβ40 reduction, Plasma Rat” value worked out at 41%. In addition, the Kp at 3 h in series [1] (30 mg/kg p.o.) came out at 0.62.

With `COc1cnc(C(=O)Nc2ccc(F)c([C@@]3(C)N=C(N)[C@@](C)(F)CC3(F)F)c2)cn1` [Compound 5, N-(3-((2R,5S)-6-amino-3,3,5-trifluoro-2,5-dimethyl-2,3,4,5-tetrahydropyridin-2-yl)-4-fluorophenyl)-5-methoxypyrazine-2-carboxamide], the Ki at human BACE1 is 18 nM. Besides, the figures for the “Aβ40 reduction, Brain Rat” value in the series on Aβ40 (10 mg/kg p.o.) and with Aβ40 (30 mg/kg p.o.) were 34% and 61%, respectively. Also, the results for the “Aβ40 reduction, Plasma Rat” value with Aβ40 (10 mg/kg p.o.) and in the series with Aβ40 (30 mg/kg p.o.) were 34% and 39%, respectively. Moreover, the Kp at 3 h in series [1] (10 mg/kg p.o.) is 1.3; in series [1] (30 mg/kg p.o.), 1.5.

For `COc1ccc(C(=O)Nc2ccc(F)c([C@@]3(C)N=C(N)[C@@](C)(F)CC3(F)F)c2)nc1` [Compound 17, N-(3-((2R,5S)-6-amino-3,3,5-trifluoro-2,5-dimethyl-2,3,4,5-tetrahydropyridin-2-yl)-4-fluorophenyl)-5-methoxypicolinamide], on human BACE1, the Ki was 11 nM. Besides, in the series on Aβ40 (30 mg/kg p.o.), the “Aβ40 reduction, Brain Rat” value was 63% and the “Aβ40 reduction, Plasma Rat” value is listed as 49%. Besides, the Kp at 3 h in series [1] (30 mg/kg p.o.) amounted to 1.48.

With `Cc1cc(C#N)cnc1C(=O)Nc1ccc(F)c([C@@]2(C)N=C(N)[C@@](C)(F)CC2(F)F)c1` [Compound 18, N-(3-((2R,5S)-6-amino-3,3,5-trifluoro-2,5-dimethyl-2,3,4,5-tetrahydropyridin-2-yl)-4-fluorophenyl)-5-cyano-3-methylpicolinamide], the Ki at human BACE1 was 4.3 nM. Besides, the “Aβ40 reduction, Brain Rat” value with Aβ40 (10 mg/kg p.o.) was 66%; with Aβ40 (30 mg/kg p.o.), 61%. The “Aβ40 reduction, Plasma Rat” value is 54% in the series on Aβ40 (10 mg/kg p.o.) and 50% with Aβ40 (30 mg/kg p.o.). The Kp at 3 h in series [1] (10 mg/kg p.o.) came to 0.53; in series [1] (30 mg/kg p.o.), 0.54.

As to `C[C@@]1(F)CC(F)(F)[C@@](C)(c2cc(NC(=O)c3cnc(C(F)F)cn3)ccc2F)N=C1N` [Compound 24, N-(3-((2R,5R)-6-amino-3,3,5-trifluoro-2,5-dimethyl-2,3,4,5-tetrahydropyridin-2-yl)-4-fluorophenyl)-5-(difluoromethyl)pyrazine-2-carboxamide], the Ki at human BACE1 was 420 nM. Also, the “Aβ40 reduction, Brain Rat” value was found to be 15% with Aβ40 (10 mg/kg p.o.) and 49% in the series on Aβ40 (30 mg/kg p.o.). Also, the figures for the “Aβ40 reduction, Plasma Rat” value in the series with Aβ40 (10 mg/kg p.o.) and in the series on Aβ40 (30 mg/kg p.o.) were 28% and 61%, respectively. Further, the Kp at 3 h in series [1] (10 mg/kg p.o.) is 1.39; in series [1] (30 mg/kg p.o.), 1.2.

For orientation: Ki means the dissociation constant of the complex between target and ligand, obtained from inhibition or displacement.
